Experiments:
[1] = tested on: primary mouse hippocampal neurons; test: NMDA induced cell death (excitotoxicity) in cultured primary neurons; assay type: cell-based; settings: 30 min pre-treatment with 10 μM compound; NMDA 20 μM for 10 min or 24 hours; cell death 24 hours after challenge
[2] = molecular target: T1, NMDA receptor/TRPM4 complex (Mus musculus, UniProt Q7TN37); test: co-immunoprecipitation of NMDA receptor/TRPM4 complex from mouse cortical lysates after i.p. injection; assay type: in vivo
T1 construct: cortical lysates were obtained from control mice and from mice 2 h, 6 h and 24 h following intraperitoneal injection; from tissue; host or cells: mouse cortex (lysate after i.p. injection of compound P4)
Description: In a further experiment it was assessed whether compound P4 has any impact on NMDA receptor/TRPM4 complex formation. For this purpose, co-immunoprecipitation experiments using brain lysates from the mouse cortex where carried out. Briefly, cortical lysates were obtained from control mice and from mice 2 h, 6 h and 24 h following intraperitoneal injection of compound P4 (40 mg/kg) in immunoprecipitation buffer (10 mM Tris, pH 8.0, 150 mM NaCl, 1 mM EDTA, 1% NP-40, 10% glycerol with Protease Inhibitor Cocktail, Roche) for 60 min. The lysate was then centrifuged for 12 min at 1200 g to remove cell debris and nuclei. The mixture of supernatant was incubated with anti-TRPM4 antibodies overnight. Pierce™ Protein A Magnetic Beads were added to the mixture and mixed another 12 h, followed by 3 washes with immunoprecipitation buffer. The precipitates were subsequently boiled in protein loading buffer and separated in 7.5% SDS-PAGE.

[3] = tested on: primary mouse hippocampal neurons; test: NMDA induced cell death (excitotoxicity) in cultured primary neurons; assay type: cell-based; settings: polypeptide expressed via rAAV infection on DIV3; NMDA 20 μM for 10 min; cell death assessed 24 h later

T1 sequence (Q7TN37 whole entry, one chain of several): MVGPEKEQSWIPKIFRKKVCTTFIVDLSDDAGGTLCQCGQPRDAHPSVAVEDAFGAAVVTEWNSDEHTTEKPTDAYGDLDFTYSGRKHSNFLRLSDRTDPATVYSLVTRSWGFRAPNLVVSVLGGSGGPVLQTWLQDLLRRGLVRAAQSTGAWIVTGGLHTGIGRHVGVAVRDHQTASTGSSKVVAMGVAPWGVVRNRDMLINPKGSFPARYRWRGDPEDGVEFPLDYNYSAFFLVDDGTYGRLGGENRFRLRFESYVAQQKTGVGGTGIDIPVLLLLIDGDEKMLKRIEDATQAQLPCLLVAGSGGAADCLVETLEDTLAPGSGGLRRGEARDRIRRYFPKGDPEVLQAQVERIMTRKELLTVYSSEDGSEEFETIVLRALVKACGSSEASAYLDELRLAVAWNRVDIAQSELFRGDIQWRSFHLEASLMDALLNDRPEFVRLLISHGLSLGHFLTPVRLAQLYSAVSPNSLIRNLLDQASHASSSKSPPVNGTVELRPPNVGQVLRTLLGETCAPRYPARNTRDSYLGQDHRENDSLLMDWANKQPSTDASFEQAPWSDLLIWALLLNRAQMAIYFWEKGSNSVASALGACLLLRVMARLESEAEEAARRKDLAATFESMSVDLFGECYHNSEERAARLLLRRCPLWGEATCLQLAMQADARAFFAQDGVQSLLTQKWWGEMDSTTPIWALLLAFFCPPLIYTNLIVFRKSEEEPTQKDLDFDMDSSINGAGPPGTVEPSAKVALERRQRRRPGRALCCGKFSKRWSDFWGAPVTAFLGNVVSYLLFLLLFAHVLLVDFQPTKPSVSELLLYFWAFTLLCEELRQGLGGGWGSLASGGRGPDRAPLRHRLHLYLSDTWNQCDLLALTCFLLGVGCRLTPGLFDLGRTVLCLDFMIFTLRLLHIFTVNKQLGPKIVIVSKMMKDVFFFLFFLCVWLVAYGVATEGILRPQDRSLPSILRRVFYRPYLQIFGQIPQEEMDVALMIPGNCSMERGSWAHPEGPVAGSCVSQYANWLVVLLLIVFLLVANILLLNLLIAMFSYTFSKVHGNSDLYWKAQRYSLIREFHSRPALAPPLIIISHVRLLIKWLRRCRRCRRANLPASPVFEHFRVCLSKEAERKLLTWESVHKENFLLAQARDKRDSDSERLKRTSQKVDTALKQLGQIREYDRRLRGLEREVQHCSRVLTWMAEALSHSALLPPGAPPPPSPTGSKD

reduction in NMDA receptor/TRPM4 complex formation ([2]; 2 h after single i.p. injection of 40 mg/kg) [%] | reduction in NMDA receptor/TRPM4 complex formation ([2]; 6 h after single i.p. injection of 40 mg/kg) [%] | NMDA receptor/TRPM4 complex formation ([2]; 24 h after i.p. injection of 40 mg/kg) | Compound | NMDA receptor induced cell death (transient and chronic NMDA toxicity) [1] | protection against NMDA induced cell death (neuroprotective effect) [3]
51 | 61 | had reformed | CCN(CCN)Cc1cccc(Br)c1 [P4] | neuroprotective effect | 
 |  |  | SEQ ID NO:5: polypeptide, amino acid residues 633-689 of mouse TRPM4 (NSEERAARLLLRRCPLWGEATCLQLAMQADARAFFAQDGVQSLLTQKWWGEMDSTTP; listed as Mus musculus) |  | neuroprotective
